Measurements taken from patent US20180072666A1, “ENOYL REDUCTASE INHIBITORS WITH ANTIBACTERIAL ACTIVITY” (Novalex Therapeutics, Inc., priority 2016, published 2018).
In brackets after ≈: the same amount, converted by molar mass. Read-outs that look alike come from different tables or passages of the source.

Columns and labels:
[1] = target: Acinetobacter baumannii FabI (AbFabI) (Acinetobacter baumannii, UniProt A0ABX6CD96); test: biochemical; assay type: biochemical; conditions: read-out: Enzyme inhibition or IC50 with AbFabl
[2] = target: T1, Staphylococcus aureus FabI (SaFabI) (Staphylococcus aureus, UniProt Q6GI75); test: biochemical; assay type: biochemical
T1 sequence (Q6GI75 1-256): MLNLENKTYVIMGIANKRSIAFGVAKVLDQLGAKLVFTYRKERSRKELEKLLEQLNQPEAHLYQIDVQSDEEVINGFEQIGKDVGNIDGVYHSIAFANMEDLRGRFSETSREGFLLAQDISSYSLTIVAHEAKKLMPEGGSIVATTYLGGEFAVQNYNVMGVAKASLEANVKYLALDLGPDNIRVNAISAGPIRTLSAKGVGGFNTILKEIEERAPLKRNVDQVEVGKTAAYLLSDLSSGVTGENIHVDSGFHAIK

[3] = tested on: E. coli tolC- (strain BW25113, efflux pump mutant); test: microbe, parasite or virus in culture; assay type: cell-based; conditions: Escherichia coli, BW25113, read-out: MIC E. coli TolC-
S. aureus strain RN4220 = test: microbe, parasite or virus in culture; assay type: cell-based; conditions: Staphylococcus aureus, RN4220, read-out: MIC S. aureus RN4220 WT
E. coli strain BW25113 = test: microbe, parasite or virus in culture; assay type: cell-based; conditions: Escherichia coli, BW25113, read-out: MIC E. coli BW25113 WT
[4] = tested on: F. tularensis (strain Utah); test: microbe, parasite or virus in culture; assay type: cell-based; conditions: Francisella tularensis, read-out: MIC F. tularensis strain Utah
S. aureus strain Newman = test: MIC determination, S. aureus Newman; assay type: cell-based; conditions: Staphylococcus aureus, read-out: MIC S. aureus Newman WT
[5] = 200 nM enzyme, 300 μM crotonyl-coenzymeA, 200 μM NADPH, pH 5.5, read-out: Enzyme inhibition or IC50 with SaFabl
[6] = TSB media, 37° C. overnight, first clear well

SMILES	IC50 ([1]; pH 5.5) [µM]	IC50 [2, 5] [µM]	MIC [3] [µg/mL]	MIC (S. aureus strain RN4220) [µg/mL]	MIC (E. coli strain BW25113) [µg/mL]	MIC [4] [µg/mL]	MIC (S. aureus strain Newman) [µg/mL]	IC50 [1] [µM]	IC50 [2] [µM]	MIC (S. aureus strain Newman; [6]) [µg/mL]
CC(=O)Nc1ccc(/C=C/C(=O)N2CCC(c3ccccc3)C2)cn1 (centres unmarked)	0.47	1.2	12.5 (≈ 37.3 µM)	> 200	> 200	> 200				
COc1ccccc1C1CCN(C(=O)/C=C/c2ccc(NC(C)=O)nc2)C1 (centres unmarked)	0.42	3.5	0.75 (≈ 2.05 µM)	12.5 to 25 (≈ 34.2 to 68.4 µM)	> 200	12.5 (≈ 34.2 µM)	12.5 to 25 (≈ 34.2 to 68.4 µM)			
COc1ccccc1C1CCN(C(=O)Cc2ccccc2Cl)C1 (centres unmarked)		0.5	> 200	12.5 to 25 (≈ 37.9 to 75.8 µM)		50 (≈ 152 µM)		0.88		
CC(=O)Nc1ccc(/C=C/C(=O)N2CCC(c3ccccn3)C2)cn1 (centres unmarked)		28.4	100 (≈ 297 µM)	> 100	> 100	> 100		5		
CC(=O)Nc1ccc(/C=C/C(=O)N2CCC(c3ccc4c(c3)OCO4)C2)cn1 (centres unmarked)	8.5	1.1	> 100	> 200	> 100	> 200				
CC(=O)Nc1ccc(/C=C/C(=O)N2CCC(c3nccs3)C2)cn1 (centres unmarked)		4.5	> 100	> 100	> 100	> 100		10 to 20		
O=C(Cc1ccccc1Cl)N1CCC(c2nccs2)C1 (centres unmarked)		6	> 100	50 (≈ 163 µM)		200 (≈ 652 µM)		14		
O=C(Cc1ccccc1Cl)N1CCC(c2ccccc2)C1 (centres unmarked)	3.1	10.7		12.5 (≈ 41.7 µM)	> 200	25 (≈ 83.4 µM)	12.5 to 25 (≈ 41.7 to 83.4 µM)			
O=C(Cc1ccccc1Cl)N1CCC(c2ccc3c(c2)OCO3)C1 (centres unmarked)		2.5		12.5 (≈ 36.4 µM)	> 200	25 (≈ 72.7 µM)	6.25 to 12.5 (≈ 18.2 to 36.4 µM)	3.7		
O=C(Cc1ccccc1Cl)N1CCC(c2ccccn2)C1 (centres unmarked)	30.7	18.4	> 200	100 (≈ 332 µM)		200 (≈ 665 µM)				
CC(=O)Nc1ccc(CC(=O)N2CCC(c3ccccc3)C2)cc1 (centres unmarked)			200 (≈ 620 µM)	> 200		200 (≈ 620 µM)		> 100		
COc1ccccc1C1CCN(C(=O)Cc2ccc(NC(C)=O)cc2)C1 (centres unmarked)			> 200	> 200		> 200		> 100		
CC(=O)Nc1ccc(CC(=O)N2CCC(c3ccc4c(c3)OCO4)C2)cc1 (centres unmarked)			> 200	> 200		> 200		> 100		
COc1ccc(C2CCN(C(=O)Cc3ccc(NC(C)=O)cc3)C2)cc1 (centres unmarked)			> 200	> 200		> 200		> 100		
COc1ccc(C2CCN(C(=O)/C=C/c3ccc(NC(C)=O)nc3)C2)cc1 (centres unmarked)			> 200	> 200		> 200		> 100	3.55	
CC(=O)Nc1ccc(CC(=O)N2CCC(c3nccs3)C2)cc1 (centres unmarked)			> 200	> 200		> 200		> 100		
COc1ccc(C2CCN(C(=O)Cc3ccccc3Cl)C2)cc1 (centres unmarked)		12.5	100 (≈ 303 µM)	100 (≈ 303 µM)		12.5 (≈ 37.9 µM)				
CC(C)S(=O)(=O)c1ccc(CC(=O)N2CCC(c3ccc4c(c3)OCO4)C2)cc1 (centres unmarked)			> 200	> 200		100 (≈ 241 µM)		> 100		
O=C(Cc1c(F)cccc1Cl)N1CCC(c2ccc3c(c2)OCO3)C1 (centres unmarked)		1.8	> 200	25 (≈ 69.1 µM)		25 (≈ 69.1 µM)		> 100		
O=C(Cc1ccccc1F)N1CCC(c2ccccc2)C1 (centres unmarked)		5	> 200	50 (≈ 176 µM)		50 (≈ 176 µM)		2.5		50 to 100 (≈ 176 to 353 µM)
O=C(Cc1c(F)cccc1F)N1CCC(c2ccccc2)C1 (centres unmarked)		1.9	> 200	50 (≈ 166 µM)		50 (≈ 166 µM)		6.9		50 to 100 (≈ 166 to 332 µM)
O=C(Cc1cccc(F)c1F)N1CCC(c2ccccc2)C1 (centres unmarked)		7.3	> 200	50 (≈ 166 µM)		25 to 50 (≈ 83 to 166 µM)		9.3		50 to 100 (≈ 166 to 332 µM)
COc1ccccc1C1CCN(C(=O)/C=C/c2ccc(NC(C)=O)cc2)C1 (centres unmarked)			> 200	> 200		> 200				
COc1ccccc1C1CCN(C(=O)Cc2ccccc2F)C1 (centres unmarked)		4.6	> 200	50 to 100 (≈ 160 to 319 µM)		50 to 100 (≈ 160 to 319 µM)		1.9		50 to 100 (≈ 160 to 319 µM)
COc1ccccc1C1CCN(C(=O)Cc2c(F)cccc2F)C1 (centres unmarked)		5.7	> 200	50 to 100 (≈ 151 to 302 µM)		50 to 100 (≈ 151 to 302 µM)		1.6		50 to 100 (≈ 151 to 302 µM)
COc1ccccc1C1CCN(C(=O)Cc2cccc(F)c2F)C1 (centres unmarked)		3	> 200	100 (≈ 302 µM)		50 (≈ 151 µM)		7.4		
O=C(Cc1ccccc1F)N1CCC(c2ccc3c(c2)OCO3)C1 (centres unmarked)	32	2.7	> 200	> 200		25 to 50 (≈ 76.4 to 153 µM)				
O=C(Cc1c(F)cccc1F)N1CCC(c2ccc3c(c2)OCO3)C1 (centres unmarked)	54	2.3	> 200	> 200		> 200				
O=C(Cc1cccc(F)c1F)N1CCC(c2ccc3c(c2)OCO3)C1 (centres unmarked)	13.7	5.5	> 200	100 (≈ 290 µM)		25 (≈ 72.4 µM)				
